Assay results published in patent US11780826B2 (Amgen Inc., priority 2017, dated 2023).

Tested on: Bovine cardiac myofibrils
Experiment: In vitro model of dose-dependent myofibril ATPase modulation (AC1.4, pyruvate kinase/lactate dehydrogenase-coupled ATPase assay at pCa25)
Format: biochemical
Conditions: concentration at which ATPase activity was 1.4-fold higher than the bottom of the dose curve, mean of a minimum of two independent tests
Protocol: In vitro Model of Dose-Dependent Myofibril ATPase Modulation: Dose responses were measured using a calcium-buffered, pyruvate kinase and lactate dehydrogenase-coupled ATPase assay containing the following reagents (concentrations expressed are final assay concentrations): Potassium PIPES (12 mM), MgCl2 (2 mM), ATP (1 mM), DTT (1 mM), BSA (0.1 mg/mi), NADH (0.5 mM), PEP (1.5 mM), pyruvate kinase (4 U/ml), lactate dehydrogenase (8 U/ml), and antifoam (90 ppm). The pH was adjusted to 6.80 at 22° C. by addition of potassium hydroxide.
Bovine cardiac myofibrils were obtained by homogenizing the appropriate tissue in the presence of detergent. Such treatment removes membranes and majority of soluble cytoplasmic proteins but leaves intact cardiac sarcomeric acto-myosin apparatus. Concentrations of myofibrils were adjusted to achieve the necessary rate of ATP hydrolysis (typically 0.25-1.0 mg/ml).
Assays were performed by first preparing a dilution series of test chemical entity, each with an assay mixture containing potassium Pipes, MgCl2, BSA, DTT, pyruvate kinase, lactate dehydrogenase, myofibrils, antifoam, EGTA, CaCl2, and water. The assay was started by adding an equal volume of solution containing potassium Pipes, MgCl2, BSA, DTT, ATP, NADH, PEP, antifoam, and water. ATP hydrolysis was monitored by absorbance at 340 nm. The resulting dose response curve was fit by the 4 parameter equation y=Bottom+((Top−Bottom)/(1+((EC50/X)^Hill))). […] AC1.4 values reported in the table below are mean values based on a minimum of two independent tests.

AC1.4 [µM]	Compound
0.0456	Cc1ccc([C@@H](C)NC(=O)[C@H]2CCCN2C(=O)c2cccc(S(=O)(=O)N3CC(C#N)C3)c2)c(F)c1 [Example 46, 1-((3-((3-cyano-1-azetidinyl)sulfonyl)phenyl)carbonyl)-N-((1R)-1-(2-fluoro-4-methylphenyl)ethyl)-D-prolinamide]
0.05315	C[C@@H](NC(=O)[C@H]1CCCN1C(=O)c1cccc(S(=O)(=O)N2CC(C#N)C2)c1)c1ccc(C(F)F)cc1F [Example 49, 1-((3-((3-cyano-1-azetidinyl)sulfonyl)phenyl)carbonyl)-N-((1R)-1-(4-(difluoromethyl)-2-fluorophenyl)ethyl)-D-prolinamide]
0.0546	CCNc1ccc(S(C)(=O)=O)cc1C(=O)N1[C@@H](C(=O)N[C@@H](c2ccc(C(F)(F)F)cc2F)C2CC2)C[C@H]2C[C@H]21 [Example 50, (1R,3R,5R)-N-((R)-cyclopropyl(2-fluoro-4-(trifluoromethyl)phenyl)methyl)-2-(2-(ethylamino)-5-(methylsulfonyl)benzoyl)-2-azabicyclo[3.1.0]hexane-3-carboxamide]
0.05535	N#CC1CN(S(=O)(=O)c2cccc(C(=O)N3CCC[C@@H]3C(=O)N[C@@H](c3ccc(S(F)(F)(F)(F)F)cc3)C3CC3)c2)C1 [Example 52, 1-(3-((3-cyano-1-azetidinyl)sulfonyl)benzoyl)-N-((R)-cyclopropyl(4-(pentafluoro-lambda~6~-sulfanyl)phenyl)methyl)-D-prolinamide]
0.0574	N#CC1CN(S(=O)(=O)c2cc(F)cc(C(=O)N3CCC[C@@H]3C(=O)NCc3ccc(C(F)(F)F)cc3)c2)C1 [Example 53, 1-((3-((3-cyano-1-azetidinyl)sulfonyl)-5-fluorophenyl)carbonyl)-N-(4-(trifluoromethyl)benzyl)-D-prolinamide]
0.06485	N#CC1CN(S(=O)(=O)c2cccc(C(=O)N3CCC[C@@H]3C(=O)N[C@H](CO)c3ccc(Cl)cc3)c2)C1 [Example 57, N-((1S)-1-(4-chlorophenyl)-2-hydroxyethyl)-1-(3-((3-cyano-1-azetidinyl)sulfonyl)benzoyl)-D-prolinamide]
0.06485	CN(C)S(=O)(=O)c1cccc(C(=O)N2CCC[C@@H]2C(=O)N[C@@H](c2ccc(C(F)(F)F)cc2F)C2CC2)c1 [Example 58, N-((R)-cyclopropyl(2-fluoro-4-(trifluoromethyl)phenyl)methyl)-1-(3-(dimethylsulfamoyl)benzoyl)-D-prolinamide]
0.0687	CC(C)Nc1ccc(S(C)(=O)=O)cc1C(=O)N1[C@@H](C(=O)N[C@@H](c2ccc(C(F)(F)F)cc2F)C2CC2)C[C@H]2C[C@H]21 [Example 61, (1R,3R,5R)-N-((R)-cyclopropyl(2-fluoro-4-(trifluoromethyl)phenyl)methyl)-2-(5-(methylsulfonyl)-2-(2-propanylamino)benzoyl)-2-azabicyclo[3.1.0]hexane-3-carboxamide]
0.0744	N#CC1CN(S(=O)(=O)c2cccc(C(=O)N3CCC[C@@H]3C(=O)NCc3ccc(Cl)c(F)c3)c2)C1 [Example 64, N-(4-chloro-3-fluorobenzyl)-1-((3-((3-cyano-1-azetidinyl)sulfonyl)phenyl)carbonyl)-D-prolinamide]
0.08898	C[C@@H](NC(=O)[C@H]1CCCN1C(=O)c1cccc(S(=O)(=O)N2CC(C#N)C2)c1)c1ccc(Cl)cc1 [Example 71, N-((1R)-1-(4-chlorophenyl)ethyl)-1-((3-((3-cyano-1-azetidinyl)sulfonyl)phenyl)carbonyl)-D-prolinamide]

The next lines start with the compound.

Compound	AC1.4 [µM]
N#CC1CN(S(=O)(=O)N2CCC[C@H](C(=O)N3CCC[C@@H]3C(=O)N[C@H](c3cc(F)c(Cl)cc3F)C3CNC3)C2)C1 [Example 47, N-((S)-3-azetidinyl(4-chloro-2,5-difluorophenyl)methyl)-1-(((3S)-1-((3-cyano-1-azetidinyl)sulfonyl)-3-piperidinyl)carbonyl)-D-prolinamide]	0.0527
C[C@@H](NC(=O)[C@H]1CCCN1C(=O)[C@H]1CCCN(S(=O)(=O)N2CC(C#N)C2)C1)c1cc(F)c(Cl)cc1F [Example 48, N-((1R)-1-(4-chloro-2,5-difluorophenyl)ethyl)-1-(((3S)-1-((3-cyano-1-azetidinyl)sulfonyl)-3-piperidinyl)carbonyl)-D-prolinamide]	0.0531
N#CC1CN(S(=O)(=O)N2CCC[C@H](C(=O)N3CCC[C@@H]3C(=O)NCc3ccc(Cl)c(F)c3)C2)C1 [Example 51, N-(4-chloro-3-fluorobenzyl)-1-(((3S)-1-((3-cyano-1-azetidinyl)sulfonyl)-3-piperidinyl)carbonyl)-D-prolinamide]	0.0553
C[C@@H](NC(=O)[C@H]1COCCN1C(=O)[C@H]1CCCN(S(=O)(=O)N2CC(C#N)C2)C1)c1ccc(C(F)(F)F)cc1F [Example 54, (3R)-4-(((3S)-1-((3-cyano-1-azetidinyl)sulfonyl)-3-piperidinyl)carbonyl)-N-((1R)-1-(2-fluoro-4-(trifluoromethyl)phenyl)ethyl)-3-morpholinecarboxamide]	0.0583
N#CC1CN(S(=O)(=O)c2cccc(C(=O)N3CCC[C@@H]3C(=O)NCc3cc(F)cc(F)c3)c2)C1 [Example 55, 1-(3-((3-cyano-1-azetidinyl)sulfonyl)benzoyl)-N-(3,5-difluorobenzyl)-D-prolinamide]	0.0606
N#CC1CN(S(=O)(=O)N2CCC[C@H](C(=O)N3C[C@@H](F)C[C@@H]3C(=O)NCc3ccc(C(F)(F)F)cc3)C2)C1 [Example 56, (4S)-1-(((3S)-1-((3-cyano-1-azetidinyl)sulfonyl)-3-piperidinyl)carbonyl)-4-fluoro-N-(4-(trifluoromethyl)benzyl)-D-prolinamide]	0.06215
N#C[C@H]1C[C@@H](S(=O)(=O)N2CCC[C@H](C(=O)N3CCC[C@@H]3C(=O)NCc3ccc(C(F)(F)F)cc3)C2)C1 [Example 59, 1-(((3S)-1-((cis-3-cyanocyclobutyl)sulfonyl)-3-piperidinyl)carbonyl)-N-(4-(trifluoromethyl)benzyl)-D-prolinamide]	0.06495
Cc1cc(C(F)(F)F)ccc1CNC(=O)[C@H]1CCCN1C(=O)[C@H]1CCCN(S(=O)(=O)N2CC(C#N)C2)C1 [Example 60, 1-(((3S)-1-((3-cyano-1-azetidinyl)sulfonyl)-3-piperidinyl)carbonyl)-N-(2-methyl-4-(trifluoromethyl)benzyl)-D-prolinamide]	0.0657
N#CC1CN(S(=O)(=O)N2CCC[C@H](C(=O)N3CCC[C@@H]3C(=O)NCc3ccc(C(F)(F)F)cc3F)C2)C1 [Example 62, 1-(((3S)-1-((3-cyano-1-azetidinyl)sulfonyl)-3-piperidinyl)carbonyl)-N-(2-fluoro-4-(trifluoromethyl)benzyl)-D-prolinamide]	0.07198
N#CC1CN(S(=O)(=O)N2CCC[C@H](C(=O)N3CCC[C@@H]3C(=O)NCc3ccc(C(F)(F)F)cc3Cl)C2)C1 [Example 63, N-(2-chloro-4-(trifluoromethyl)benzyl)-1-(((3S)-1-((3-cyano-1-azetidinyl)sulfonyl)-3-piperidinyl)carbonyl)-D-prolinamide]	0.07385
N#CC1CN(S(=O)(=O)N2CCC[C@H](C(=O)N3CCCC[C@@H]3C(=O)NCc3ccc(C(F)(F)F)cc3)C2)C1 [Example 65, (2R)-1-(((3S)-1-((3-cyano-1-azetidinyl)sulfonyl)-3-piperidinyl)carbonyl)-N-(4-(trifluoromethyl)benzyl)-2-piperidinecarboxamide]	0.0748
CCS(=O)(=O)c1cccc(C(=O)N2[C@@H](C(=O)N[C@@H](c3cc(F)c(Cl)cc3F)C3COC3)C[C@H]3C[C@H]32)c1 [Example 66, (1R,3R,5R)-N-((R)-(4-chloro-2,5-difluorophenyl)(3-oxetanyl)methyl)-2-(3-(ethylsulfonyl)benzoyl)-2-azabicyclo[3.1.0]hexane-3-carboxamide]	0.0766
CC(C)C[C@@H](NC(=O)[C@H]1CCCN1C(=O)[C@H]1CCCN(S(=O)(=O)N2CC(C#N)C2)C1)c1ccc(C(F)(F)F)cc1 [Example 68, 1-(((3S)-1-((3-cyano-1-azetidinyl)sulfonyl)-3-piperidinyl)carbonyl)-N-((1R)-3-methyl-1-(4-(trifluoromethyl)phenyl)butyl)-D-prolinamide]	0.0784
C[C@@H](NC(=O)[C@H]1CCCN1C(=O)[C@H]1CCCN(S(=O)(=O)N2CC(C#N)C2)C1)c1ccc(Cl)c(F)c1 [Example 69, N-((1R)-1-(4-chloro-3-fluorophenyl)ethyl)-1-(((3S)-1-((3-cyano-1-azetidinyl)sulfonyl)-3-piperidinyl)carbonyl)-D-prolinamide]	0.08835
N#CC1CN(S(=O)(=O)N2CCC[C@H](C(=O)N3CCC[C@@H]3C(=O)NCc3ccc(Cl)cc3F)C2)C1 [Example 70, N-(4-chloro-2-fluorobenzyl)-1-(((3S)-1-((3-cyano-1-azetidinyl)sulfonyl)-3-piperidinyl)carbonyl)-D-prolinamide]	0.08855
